Assay results: patent US20220372448A1, “CELL LINE AND PRODUCING METHOD THEREOF” (University of Yamanashi, priority 2021, published 2022)

Test system: replicon replication in VeroE6/Rep #3 cells
Format: cell-based, SARS-CoV-2
Conditions: 72 hours

SMILES: CC(C)C(=O)OC[C@H]1O[C@@H](n2ccc(NO)nc2=O)[C@H](O)[C@@H]1O [EIDD-2801, molnupiravir]
- effectiveness rate = (Replicon replication level)/(Cell survival rate): about 0.2
- luciferase activity (index of the replicon replication level) compared with DMSO negative control: significantly decreased
